We go through 1 compound from patent publication US9717253B2, “Synergistic Bacillus thuringiensis subsp. aizawai and chlorantraniliprole mixtures for diamondback moth, beet armyworm, soybean looper, corn earworm, cabbage looper, and southwestern corn borer control” (priority 2015, dated 2017).

The test system of one assay is diamondback moth larvae. The assay can be described thus: Leaf dip test, diamondback moth larvae. Conditions: Plutella xylostella, foliar, Bta 2.7 ppm, chlorantraniliprole 0.0009 ppm, mixture 2.7 ppm + 0.0009 ppm, read-out: % Efficacy. Format: in vivo. As for the experimental part: (§1) For these tests, standardized laboratory leaf dip methods were used to inoculate plant material with treatment(s). Dry, treated leaves were placed into Petri dishes (100×25 mm) containing filter paper wetted with 500 μl of distilled H2O (“dH2O”). Each dish was then infested with between 5 and 10 larvae, dependent on species. Efficacy ratings were taken at specified intervals. Synergy ratings were calculated for each test.
In this study, the response of diamondback moth larvae to synergistic amounts of Bacillus thuringiensis subsp. aizawai (“Bta”) and chlorantraniliprole was observed.
(§2) % Cexp=A+B−(AB/100), where % Cexp is the expected efficacy and “in which A and B are the control levels given by the single [insecticides]. If the ratio between the experimentally observed efficacy of the mixture Cobs and the expected efficacy of the mixture is greater than 1, synergistic interactions are present in the mixture.” (Gisi, Synergisitic Interaction of Fungicides in Mixtures, The American Phytopathological Society, 86:11, 1273-1279, 1996). Adopting a conservative approach, Applicant determined synergy to be present at ratios of ≧1.15.
(§3) Bacillus thuringiensis subsp. aizawai was applied at a concentration of 2.7 ppm (2.7 μg/ml). Chlorantraniliprole was applied at a concentration of 0.0009 ppm (0.0009 μg/ml). […]

The subject of another assay is beet armyworm larvae. Kind of assay: Leaf dip test, beet armyworm larvae. Format: in vivo. Conditions: Spodoptera exigua, foliar, Bta 2.7 ppm, chlorantraniliprole 0.0009 ppm, mixture 2.7 ppm + 0.0009 ppm, read-out: % Efficacy. As for the experimental part: as §1, §2
In this study, the response of beet armyworm larvae to amounts of Bacillus thuringiensis subsp. aizawai and chlorantraniliprole was observed.
as §3

A further assay deals with cabbage looper larvae. Kind of assay: Leaf dip test, cabbage looper larvae. Format: in vivo. The settings on record: Trichoplusia ni, foliar, Bta 2.7 ppm, chlorantraniliprole 0.0009 ppm, mixture 2.7 ppm + 0.0009 ppm, read-out: % Efficacy. The protocol:
as §1, §2
In this study, the response of cabbage looper larvae to amounts of Bacillus thuringiensis subsp. aizawai and chlorantraniliprole was observed.
as §3

A further assay concerns sugarcane borer larvae. The assay can be described thus: Leaf dip test, sugarcane borer larvae. The class given is in vivo. Conditions: foliar, Bta 27 ppm, chlorantraniliprole 0.0009 ppm, mixture 27 ppm + 0.0009 ppm, read-out: % Efficacy. As for the experimental part:
as §1, §2
In this study, the response of sugarcane borer larvae to amounts of Bacillus thuringiensis subsp. aizawai and chlorantraniliprole was observed.
(§4) Bacillus thuringiensis subsp. aizawai was applied at a concentration of 27 ppm (27 μg/ml). Chlorantraniliprole was applied at a concentration of 0.0009 ppm (0.0009 μg/ml). […]

For assay [1], the system named is southwestern corn borer larvae. Kind of assay: Leaf dip test, southwestern corn borer larvae. Format: in vivo, Diatraea grandiosella. The settings on record: foliar, Bta 2.7 ppm, chlorantraniliprole 0.0009 ppm, mixture 2.7 ppm + 0.0009 ppm, read-out: % Efficacy. As for the experimental part: as §1, §2
In this study, the response of southwestern corn borer larvae to amounts of Bacillus thuringiensis subsp. aizawai and chlorantraniliprole was observed.
as §3

A further assay has as its system soybean looper larvae. The assay can be described thus: Leaf dip test, soybean looper larvae. The class given is in vivo, Chrysodeixis includens. Conditions: foliar, Bta 27 ppm, chlorantraniliprole 0.0009 ppm, mixture 27 ppm + 0.0009 ppm, read-out: % Efficacy. The protocol:
as §1, §2
In this study, the response of soybean looper larvae to amounts of Bacillus thuringiensis subsp. aizawai and chlorantraniliprole was observed.
as §4

For another assay, the system named is corn earworm larvae. Kind of assay: Leaf dip test, corn earworm larvae. The class given is in vivo. Conditions: Helicoverpa zea, foliar, Bta 27 ppm, chlorantraniliprole 0.0009 ppm, mixture 27 ppm + 0.0009 ppm, read-out: % Efficacy. The protocol:
as §1, §2
In this study, the response of corn earworm larvae to amounts of Bacillus thuringiensis subsp. aizawai and chlorantraniliprole was observed.
as §4

Molecules are shown by their SMILES. Where two headings read alike, the source gives them in different places.

Take `CNC(=O)c1cc(Cl)cc(C)c1NC(=O)c1cc(Br)nn1-c1ncccc1Cl` [Chlorantraniliprole, chlorantraniliprole]: the Emax at 0.0009 ppm stood at 7% in the assay with diamondback moth larvae (24 h after treatment); 7% in the assay on diamondback moth larvae (48 h after treatment); 10% in the assay with beet armyworm larvae (24 h after treatment); 13% in the assay with beet armyworm larvae (48 h after treatment); 7% in the assay on cabbage looper larvae (24 h after treatment); 10% in the assay on cabbage looper larvae (48 h after treatment). Moreover, the Emax at 0.0009 ppm with sugarcane borer larvae (24 h after treatment) stood at 6%; in the assay with sugarcane borer larvae (48 h after treatment) it was 12%; in assay [1] (24 h after treatment) it was 3%; in assay [1] (48 h after treatment), 7%; in the assay with soybean looper larvae (24 h after treatment) it was 10%; with soybean looper larvae (48 h after treatment) it was 13%. Also, the Emax at 0.0009 ppm in the assay with corn earworm larvae (24 h after treatment) was 10%; in the assay on corn earworm larvae (48 h after treatment), 7%.
